Data as given in patent publication US10428028B2, “HDAC inhibitors” (BIOMARIN PHARMACEUTICAL INC., priority 2013, dated 2019).

Tested on: Frataxin (FXN) mRNA
Test: Effect of HDAC inhibitors on frataxin (FXN) mRNA expression
Format: cell-based, human (Friedreich's ataxia patient primary lymphocytes)
Conditions: Friedreich's ataxia patient primary lymphocytes, 48 hours
Protocol: Blood is collected from Friedreich's ataxia patient donors into tubes containing the anti-coagulant EDTA. Primary lymphocytes are isolated using Lymphocyte Separation Medium (MP Biomedicals, Solon, Ohio) following the manufacturer's instructions and including a few modifications made by Repligen. After a final wash in Phosphate Buffered Saline (PBS), the cells are distributed into a 6-well cell culture plate in cell growth medium. The test HDAC inhibitor compound is added to cells in a dose escalating manner (usually concentrations range from 1 to 10 μM) and 0.1% DMSO is added to one well of cells as a no treatment control. […] The RNA yield and concentration is determined using a Nanodrop spectrophotometer (Thermo Fisher Scientific, Waltham, Mass.) and depending on the RNA concentration, one of two protocols is used to measure frataxin (FXN) transcript levels. […] In both methods each RNA sample is analyzed in triplicate (preferably) or duplicate (minimally) using a one-step qRT-PCR master mix that contains all the components necessary for cDNA synthesis and PCR amplification in a single, continuous reaction. […] The amount of FXN (or GAPDH) in the sample is determined as the relative quantity to the calibrator where the calibrator sample is assigned an arbitrary quantity of 1. […] The relative quantity of FXN is normalized to cell number and RNA input. […]

| SMILES | Fxn >2X (concentration required for a 2-fold increase in FXN mRNA) |
| --- | --- |
| Nc1ccccc1NC(=O)c1ccc2c(cnn2Cc2ccc(F)c(F)c2)c1 [Compound A9] | A (A if less than 5 μM) |
| Nc1cc(F)ccc1NC(=O)c1ccc2c(cnn2CC2CC2)c1 [Compound A12] | C (C if greater than 10 μM) |
